{"source": "PubChem BioAssay (NCI)", "assay_in_all_cases": "NCI anticancer screen, dose series, 48 h", "key": {"A498 renal": {"tested_on": "A498 renal"}, "A549 NSCLC": {"tested_on": "A549 NSCLC"}, "ACHN renal": {"tested_on": "ACHN renal"}, "CAKI-1 renal": {"tested_on": "CAKI-1 renal"}, "CCRF-CEM leukemia": {"tested_on": "CCRF-CEM leukemia"}, "COLO 205 colon": {"tested_on": "COLO 205 colon"}, "DLD-1 colon": {"tested_on": "DLD-1 colon"}, "DMS 114 small cell lung": {"tested_on": "DMS 114 small cell lung"}, "DMS 273 small cell lung": {"tested_on": "DMS 273 small cell lung"}, "EKVX NSCLC": {"tested_on": "EKVX NSCLC"}, "HCC-2998 colon": {"tested_on": "HCC-2998 colon"}, "HCT-116 colon": {"tested_on": "HCT-116 colon"}, "HCT-15 colon": {"tested_on": "HCT-15 colon"}, "HL-60(TB) leukemia": {"tested_on": "HL-60(TB) leukemia"}, "HOP-62 NSCLC": {"tested_on": "HOP-62 NSCLC"}, "HOP-92 NSCLC": {"tested_on": "HOP-92 NSCLC"}, "HT29 colon": {"tested_on": "HT29 colon"}, "IGROV1 ovarian": {"tested_on": "IGROV1 ovarian"}, "K-562 leukemia": {"tested_on": "K-562 leukemia"}, "KM12 colon": {"tested_on": "KM12 colon"}, "KM20L2 colon": {"tested_on": "KM20L2 colon"}, "LXFL 529 NSCLC": {"tested_on": "LXFL 529 NSCLC"}, "M14 melanoma": {"tested_on": "M14 melanoma"}, "M19-MEL melanoma": {"tested_on": "M19-MEL melanoma"}, "MALME-3M melanoma": {"tested_on": "MALME-3M melanoma"}, "MOLT-4 leukemia": {"tested_on": "MOLT-4 leukemia"}, "NCI-H226 lung": {"tested_on": "NCI-H226 lung"}, "NCI-H23 lung": {"tested_on": "NCI-H23 lung"}, "NCI-H460 lung": {"tested_on": "NCI-H460 lung"}, "NCI-H522 lung": {"tested_on": "NCI-H522 lung"}, "OVCAR-3 ovarian": {"tested_on": "OVCAR-3 ovarian"}, "OVCAR-4 ovarian": {"tested_on": "OVCAR-4 ovarian"}, "OVCAR-5 ovarian": {"tested_on": "OVCAR-5 ovarian"}, "OVCAR-8 ovarian": {"tested_on": "OVCAR-8 ovarian"}, "RPMI-8226 leukemia": {"tested_on": "RPMI-8226 leukemia"}, "RXF 393 renal": {"tested_on": "RXF 393 renal"}, "SF-268 CNS": {"tested_on": "SF-268 CNS"}, "SF-295 CNS": {"tested_on": "SF-295 CNS"}, "SF-539 CNS": {"tested_on": "SF-539 CNS"}, "SK-MEL-2 melanoma": {"tested_on": "SK-MEL-2 melanoma"}, "SK-MEL-28 melanoma": {"tested_on": "SK-MEL-28 melanoma"}, "SK-MEL-5 melanoma": {"tested_on": "SK-MEL-5 melanoma"}, "SK-OV-3 ovarian": {"tested_on": "SK-OV-3 ovarian"}, "SN12C renal": {"tested_on": "SN12C renal"}, "SNB-19 CNS": {"tested_on": "SNB-19 CNS"}, "SNB-75 CNS": {"tested_on": "SNB-75 CNS"}, "SNB-78 CNS": {"tested_on": "SNB-78 CNS"}, "SR leukemia": {"tested_on": "SR leukemia"}, "SW-620 colon": {"tested_on": "SW-620 colon"}, "TK-10 renal": {"tested_on": "TK-10 renal"}, "U251 CNS": {"tested_on": "U251 CNS"}, "UACC-257 melanoma": {"tested_on": "UACC-257 melanoma"}, "UACC-62 melanoma": {"tested_on": "UACC-62 melanoma"}, "UO-31 renal": {"tested_on": "UO-31 renal"}, "XF 498 CNS": {"tested_on": "XF 498 CNS"}, "HOP-18 NSCLC": {"tested_on": "HOP-18 NSCLC"}}, "note": "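Test compounds were applied to cells in 96-well plates for 48 hours at 5 doses. The concentration for full growth arrest is given as TGI.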"}
{"smiles": "COc1ccc(/C=C(\\C2=NC(=O)CS2)c2nc3ccccc3[nH]2)cc1", "values": [{"measurement": "TGI", "setting": "A498 renal", "result": "> 100", "unit": "µM"}, {"measurement": "TGI", "setting": "A549 NSCLC", "result": "> 100", "unit": "µM"}, {"measurement": "TGI", "setting": "ACHN renal", "result": "> 100", "unit": "µM"}, {"measurement": "TGI", "setting": "CAKI-1 renal", "result": "> 100", "unit": "µM"}, {"measurement": "TGI", "setting": "CCRF-CEM leukemia", "result": "> 100", "unit": "µM"}, {"measurement": "TGI", "setting": "COLO 205 colon", "result": "> 100", "unit": "µM"}, {"measurement": "TGI", "setting": "DLD-1 colon", "result": "> 100", "unit": "µM"}, {"measurement": "TGI", "setting": "DMS 114 small cell lung", "result": "> 100", "unit": "µM"}, {"measurement": "TGI", "setting": "DMS 273 small cell lung", "result": "> 100", "unit": "µM"}, {"measurement": "TGI", "setting": "EKVX NSCLC", "result": "> 100", "unit": "µM"}, {"measurement": "TGI", "setting": "HCC-2998 colon", "result": 49.7, "unit": "µM"}, {"measurement": "TGI", "setting": "HCT-116 colon", "result": "> 100", "unit": "µM"}, {"measurement": "TGI", "setting": "HCT-15 colon", "result": "> 100", "unit": "µM"}, {"measurement": "TGI", "setting": "HL-60(TB) leukemia", "result": "> 100", "unit": "µM"}, {"measurement": "TGI", "setting": "HOP-62 NSCLC", "result": "> 100", "unit": "µM"}, {"measurement": "TGI", "setting": "HOP-92 NSCLC", "result": "> 100", "unit": "µM"}, {"measurement": "TGI", "setting": "HT29 colon", "result": "> 100", "unit": "µM"}, {"measurement": "TGI", "setting": "IGROV1 ovarian", "result": "> 100", "unit": "µM"}, {"measurement": "TGI", "setting": "K-562 leukemia", "result": "> 100", "unit": "µM"}, {"measurement": "TGI", "setting": "KM12 colon", "result": "> 100", "unit": "µM"}, {"measurement": "TGI", "setting": "KM20L2 colon", "result": "> 100", "unit": "µM"}, {"measurement": "TGI", "setting": "LXFL 529 NSCLC", "result": "> 100", "unit": "µM"}, {"measurement": "TGI", "setting": "M14 melanoma", "result": "> 100", "unit": "µM"}, {"measurement": "TGI", "setting": "M19-MEL melanoma", "result": "> 100", "unit": "µM"}, {"measurement": "TGI", "setting": "MALME-3M melanoma", "result": "> 100", "unit": "µM"}, {"measurement": "TGI", "setting": "MOLT-4 leukemia", "result": "> 100", "unit": "µM"}, {"measurement": "TGI", "setting": "NCI-H226 lung", "result": 28.6, "unit": "µM"}, {"measurement": "TGI", "setting": "NCI-H23 lung", "result": "> 100", "unit": "µM"}, {"measurement": "TGI", "setting": "NCI-H460 lung", "result": "> 100", "unit": "µM"}, {"measurement": "TGI", "setting": "NCI-H522 lung", "result": 49.7, "unit": "µM"}, {"measurement": "TGI", "setting": "OVCAR-3 ovarian", "result": 52.3, "unit": "µM"}, {"measurement": "TGI", "setting": "OVCAR-4 ovarian", "result": "> 100", "unit": "µM"}, {"measurement": "TGI", "setting": "OVCAR-5 ovarian", "result": "> 100", "unit": "µM"}, {"measurement": "TGI", "setting": "OVCAR-8 ovarian", "result": "> 100", "unit": "µM"}, {"measurement": "TGI", "setting": "RPMI-8226 leukemia", "result": "> 100", "unit": "µM"}, {"measurement": "TGI", "setting": "RXF 393 renal", "result": 6.81, "unit": "µM"}, {"measurement": "TGI", "setting": "SF-268 CNS", "result": "> 100", "unit": "µM"}, {"measurement": "TGI", "setting": "SF-295 CNS", "result": "> 100", "unit": "µM"}, {"measurement": "TGI", "setting": "SF-539 CNS", "result": 41.9, "unit": "µM"}, {"measurement": "TGI", "setting": "SK-MEL-2 melanoma", "result": 62.9, "unit": "µM"}, {"measurement": "TGI", "setting": "SK-MEL-28 melanoma", "result": "> 100", "unit": "µM"}, {"measurement": "TGI", "setting": "SK-MEL-5 melanoma", "result": "> 100", "unit": "µM"}, {"measurement": "TGI", "setting": "SK-OV-3 ovarian", "result": 60, "unit": "µM"}, {"measurement": "TGI", "setting": "SN12C renal", "result": "> 100", "unit": "µM"}, {"measurement": "TGI", "setting": "SNB-19 CNS", "result": "> 100", "unit": "µM"}, {"measurement": "TGI", "setting": "SNB-75 CNS", "result": 71.6, "unit": "µM"}, {"measurement": "TGI", "setting": "SNB-78 CNS", "result": "> 100", "unit": "µM"}, {"measurement": "TGI", "setting": "SR leukemia", "result": "> 100", "unit": "µM"}, {"measurement": "TGI", "setting": "SW-620 colon", "result": "> 100", "unit": "µM"}, {"measurement": "TGI", "setting": "TK-10 renal", "result": "> 100", "unit": "µM"}, {"measurement": "TGI", "setting": "U251 CNS", "result": "> 100", "unit": "µM"}, {"measurement": "TGI", "setting": "UACC-257 melanoma", "result": "> 100", "unit": "µM"}, {"measurement": "TGI", "setting": "UACC-62 melanoma", "result": "> 100", "unit": "µM"}, {"measurement": "TGI", "setting": "UO-31 renal", "result": "> 100", "unit": "µM"}, {"measurement": "TGI", "setting": "XF 498 CNS", "result": 81.5, "unit": "µM"}]}
{"smiles": "CC(=O)Oc1cc(OC(C)=O)c2c(c1)OC(c1ccc(OC(C)=O)c(OC(C)=O)c1)CC2=O", "note": "(configuration not stated)", "values": [{"measurement": "TGI", "setting": "A549 NSCLC", "result": "> 100", "unit": "µM"}, {"measurement": "TGI", "setting": "CCRF-CEM leukemia", "result": "> 100", "unit": "µM"}, {"measurement": "TGI", "setting": "COLO 205 colon", "result": "> 100", "unit": "µM"}, {"measurement": "TGI", "setting": "DMS 273 small cell lung", "result": "> 100", "unit": "µM"}, {"measurement": "TGI", "setting": "HCC-2998 colon", "result": "> 100", "unit": "µM"}, {"measurement": "TGI", "setting": "HCT-116 colon", "result": "> 100", "unit": "µM"}, {"measurement": "TGI", "setting": "HL-60(TB) leukemia", "result": 29.7, "unit": "µM"}, {"measurement": "TGI", "setting": "HOP-18 NSCLC", "result": 95.8, "unit": "µM"}, {"measurement": "TGI", "setting": "HOP-92 NSCLC", "result": 69.4, "unit": "µM"}, {"measurement": "TGI", "setting": "SF-295 CNS", "result": "> 100", "unit": "µM"}, {"measurement": "TGI", "setting": "SK-MEL-5 melanoma", "result": "> 100", "unit": "µM"}, {"measurement": "TGI", "setting": "SK-OV-3 ovarian", "result": "> 100", "unit": "µM"}, {"measurement": "TGI", "setting": "SN12C renal", "result": "> 100", "unit": "µM"}, {"measurement": "TGI", "setting": "SR leukemia", "result": 49, "unit": "µM"}, {"measurement": "TGI", "setting": "SW-620 colon", "result": "> 100", "unit": "µM"}, {"measurement": "TGI", "setting": "TK-10 renal", "result": "> 100", "unit": "µM"}, {"measurement": "TGI", "setting": "UO-31 renal", "result": "> 100", "unit": "µM"}]}
